# Key:
# U937 cells = assay: Fate of receptor-bound u-PA:PAI-1 complex on U937 cells; format: cell-based, human; settings: 0.5 mM chloroquine
# Experimental: Binding assay. […] The cells were then acid-treated in 50 mM glycine-HCl, 100 mM NaCl (pH 3) for 3 minutes at 4° C. and quickly neutralized with half a volume of 0.5 M Hepes, 100 mM NaCl (pH 7.4). […] Non-specific binding was determined in the presence of 100 nM unlabelled u-PA.
# The basic experiment was carried out in two steps: first, labelled ligands were incubated with acid-washed cells at 4° C. for 90 minutes (step 1). […] In step 2, the cells were incubated at 37° C. for 3 hours in binding buffer containing no ligands. The amount and the state of the ligand were assayed by quantitation of the radioactivity (and the extent of TCA precipitability) at different times during step 2. To this end, both the radioactivity recovered in the cell-associated form and in the supernatant were measured.
# HT-1080 cells [1] = assay: Formation of bound plasmin on HT-1080 cells in serum culture; format: cell-based, human; settings: for Bound plasmin activity (%): 10% serum medium, Plg alone = 100%
# HT-1080 cells [2] = assay: u-PA activity in medium of HT-1080 cultures (immunocapture assay); format: cell-based; settings: Homo sapiens, control = 100%; for activity at 10 µM: TA 10 μM with Plg 40 μg/ml; for activity at 100 µM: TA 100 μM with Plg 40 μg/ml
# Experimental: S. et al., "Enzyme-linked immunosorbent assay for human urokinase-type plasminogen activators and its proenzyme using a combination of monoclonal and polyclonal antibodies", J. […] S. et al., "Monoclonal antibodies to human 54,000 molecular weight plasminogen activator inhibitor from fibrosarcoma cells--inhibitor neutralization and one-step affinity purification", Thromb. […] The coating solution contained 2.5 μg of IgG per ml of 0.1 M sodium carbonate (pH 9.8). After rinsing, the wells were treated with conditioned medium ([…]) for 2 hours at 23° C., then rinsed again. […] The other half (controls) received 50 μl of rinsing buffer (0.05% Tween 20 in PBS). […] The cultures were incubated for the times shown before assay of cell-bound plasmin.
# HT-1080 cells [3] = assay: Pro-u-PA index of cell-bound u-PA on HT-1080 cells in serum medium; format: cell-based, human; settings: TA 100 μM with Plg 40 μg/ml and anti-PAI-1 antibody 10 μg/ml, 2 h at 37° C.
# Experimental: Cell culture supernatants were assayed for pro-u-PA and active u-PA by the following modification of an immunocapture method (Stephens et al., 1988; Stephens et al., 1987). Microtitre wells of polystyrene immunoplates (type 269620, A/S Nunc, Roskilde, Denmark) were coated overnight at 37° C. with 50 μl of a solution of goat IgG antibodies to human u-PA (cat. # 398, American Diagnostica). The coating solution contained 2.5 μg of IgG per ml of 0.1 M sodium carbonate (pH 9.8). After rinsing, the wells were treated with conditioned medium ([…]) for 2 hours at 23° C., then rinsed again. […] This mixture was incubated for 30 minutes at 37° C., and the absorbancies of the wells were read at 405 nm. […]
# Pro-u-PA and active u-PA bound to the cell layer were recovered for immunocapture assays by the same method as was used in the metabolic labelling (see above). […] For conditioned medium and cell-bound u-PA, the u-PA activity assayed after NPGB treatment was expressed as a percentage of the total activity obtained without NPGB treatment, and this percentage used as an index of pro-u-PA content (pro-u-PA index). […]
# plasmin [4] = target: T1, plasmin (Homo sapiens, UniProt P00747); assay: Plasmin thioesterase assay (Z-lysine thiobenzyl ester); format: biochemical; settings: tranexamic acid 1 mM
# plasmin [5] = target: T1, plasmin; assay: Plasmin-catalysed activation of pro-u-PA in solution; format: biochemical; settings: tranexamic acid 100 μM; unpublished results
# HT-1080 cells [6] = assay: Plasmin binding to and release from HT-1080 cells; format: cell-based, human
# Experimental: Plasmin release from HT-1080 cells into serum-free and serum-containing media. Confluent layers of HT-1080 cells were first loaded with plasmin by incubation for 1 hour at 37° C. in serum-free MEM medium (0.5 ml) containing human plasmin (0-5 μg/ml). After rinsing the cell layers three times, they were incubated for 2 hours at 37° C. with either serum-free medium (.smallcircle.--.smallcircle.), medium containing 10% heat-inactivated and plasminogen-depleted fetal calf serum (.circle-solid.--.circle-solid.), or the latter with tranexamic acid (100 μM) (.box-solid.--.box-solid.). Plasmin was then assayed in the cell-bound fraction (A) and the media (B).
# In the Examples concerning plasmin binding to cells from medium, human plasmin (approximately 18 CU/mg; Kabi Diagnostica, Stockholm, Sweden) was added to the cultures at final concentrations of 0-5 μg/ml. The cells were incubated for 3 hours at 37° C. before assay of cell-bound and supernatant plasmin (see below). For plasmin release experiments, cells were loaded for 1 hour at 37° C. with 0-5 μg/ml plasmin in serum-free medium, then rinsed three times with MEM.
# Plasmin bound to the cell layer was recovered and assayed as follows. […] Plasmin activity was assayed in eluate samples (50 μl) as above with an incubation time of 3 hours at 37° C.
# T1 sequence (P00747 581-810 limits assumed): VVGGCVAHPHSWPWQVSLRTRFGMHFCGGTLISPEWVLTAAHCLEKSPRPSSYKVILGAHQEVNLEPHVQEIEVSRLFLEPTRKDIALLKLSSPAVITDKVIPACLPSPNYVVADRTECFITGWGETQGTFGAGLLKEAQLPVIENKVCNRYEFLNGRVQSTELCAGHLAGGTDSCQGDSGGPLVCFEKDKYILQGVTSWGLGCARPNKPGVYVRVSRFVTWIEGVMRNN
# T1 sequence (P00747 97-580 limits assumed): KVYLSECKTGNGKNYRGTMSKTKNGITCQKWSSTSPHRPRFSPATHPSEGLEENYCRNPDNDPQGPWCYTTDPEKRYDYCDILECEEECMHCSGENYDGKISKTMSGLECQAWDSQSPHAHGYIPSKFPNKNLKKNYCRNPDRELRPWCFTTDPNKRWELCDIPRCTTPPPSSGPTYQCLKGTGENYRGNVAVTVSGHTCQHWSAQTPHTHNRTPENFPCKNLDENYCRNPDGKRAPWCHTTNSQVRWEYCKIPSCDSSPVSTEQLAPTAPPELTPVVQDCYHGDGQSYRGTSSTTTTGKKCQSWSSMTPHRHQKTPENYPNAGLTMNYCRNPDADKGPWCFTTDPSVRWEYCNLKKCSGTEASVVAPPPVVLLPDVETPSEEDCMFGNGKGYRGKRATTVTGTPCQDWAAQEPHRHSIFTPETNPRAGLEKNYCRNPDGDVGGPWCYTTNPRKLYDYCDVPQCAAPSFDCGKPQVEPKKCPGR
Compound,Ability of the u-PA:PAI-1 complex to bind to the U937 cells (U937 cells),"Bound plasmin activity (%) (HT-1080 cells [1]; TA 10 μM with Plg 40 μg/ml, 3 h)","Bound plasmin activity (%) (HT-1080 cells [1]; TA 10 μM with Plg 40 μg/ml, 17 h)","Bound plasmin activity (HT-1080 cells [1]; TA 100 μM with Plg 40 μg/ml and anti-PAI-1 antibody 10 μg/ml, 2 h at 37° C.)","Bound plasmin activity (%) (HT-1080 cells [1]; TA 100 μM with Plg 40 μg/ml, 3 h)","Bound plasmin activity (%) (HT-1080 cells [1]; TA 100 μM with Plg 40 μg/ml, 17 h)",activity at 10 µM (HT-1080 cells [2]; 3 h),activity at 10 µM (HT-1080 cells [2]; 17 h),activity at 100 µM (HT-1080 cells [2]; 3 h),activity at 100 µM (HT-1080 cells [2]; 17 h),Pro-u-PA index (%) (HT-1080 cells [3]),Effect on the thioesterase activity of plasmin (plasmin [4]),Ability of plasmin to activate pro-u-PA in solution (plasmin [5]),"Plasmin activity recovered from plasmin-loaded cells (HT-1080 cells [6]; 1 mM tranexamic acid in 10% serum medium, 2 h at 37° C.)",Binding of plasmin to the cells (HT-1080 cells [6]; tranexamic acid 100 μM)
CCN(CC)CCCC(C)Nc1ccnc2cc(Cl)ccc12 (stereo not drawn) [chloroquine],does not affect,,,,,,,,,,,,,,
NC[C@H]1CC[C@H](C(=O)O)CC1 [tranexamic acid],,9.7%,34%,0 ng,2.2%,13%,116%,87%,92%,95%,88%,no effect,does not affect,no plasmin activity could be recovered,completely inhibits
